A word on the Km: it is the concentration of substrate that gives half-maximal velocity.

The results in this text go back to patent publication US5721338A, “Inhibitors of oligosaccharyl transferase” (California Institute of Technology, priority 1995, dated 1998).

Starred links: 1 amine or outer side, 2 acyl side, 3 side chain; linkers in the order of their positions; H or OH if unused. Positions of bridges follow the written chain, without caps; N, C: chain ends. Non-standard residues stand in square brackets, D forms with d. Residues, ends and D or L forms follow the SMILES beside them. Phe(4-NO2) = N[C@@H](Cc1ccc([N+](=O)[O-])cc1)C(=O)O; X1 = O=C(CCCCC[*:2])[*:1]; Dab = NCC[C@H](N)C(=O)O

Data set [1] deals with T1, S. Cerevisiae Oligosaccharyl Transferase (Saccharomyces cerevisiae, UniProt P39007).
T1 construct: a solubilized preparation of the yeast enzyme oligosaccharyl transferase; endogenous in cells; host or cells: Saccharomyces cerevisiae (crude, Triton-solubilized enzyme preparation)
Description: Inhibition kinetics (competitive inhibition) with solubilized yeast oligosaccharyl transferase; glycopeptide production from Dol-P-P-GlcNAc-[3H]-GlcNAc and Bz-Asn-Leu-Thr-NHMe. The data set is classed as biochemical. Conditions: 37.5 μM Bz-Asn-Leu-Thr-NHMe, control rate 701 dpm min^-1.

Substrate in data set [2]: CNC(=O)[C@@H](NC(=O)[C@H](CC(C)C)NC(=O)[C@H](CC(N)=O)NC(=O)c1ccccc1)[C@@H](C)O
The data set is described as above. The data set is classed as biochemical, S. Cerevisiae. Conditions: other: competing substrate of OT, used in the Ki equation; pH 7.5.

Consider `CC(C)[C@H](NC(=O)[C@@H](NC(=O)[C@@H]1CSCCCCCC(=O)N[C@@H](CCN)C(=O)N1)[C@@H](C)O)C(=O)N[C@H](C(=O)N[C@@H](Cc1ccc([N+](=O)[O-])cc1)C(N)=O)[C@@H](C)O` [Compound 2, Cyclo(Amb-Cys)-Thr-Val-Thr-Nph] ([Dab]CTVT[Phe(4-NO2)]-NH2; linker N-2 via X1), for which the “rate of glycopeptide production” value is 572 dpm min^-1 in data set [1] (10 nM solution of 2) and 296 dpm min^-1 in data set [1] (100 nM solution of 2).

B1: S. Cerevisiae Oligosaccharyl Transferase (Saccharomyces cerevisiae S288C) (protein)
chain: MGSDRSCVLSVFQTILKLVIFVAIFGAAISSRLFAVIKFESIIHEFDPWFNYRATKYLVNNSFYKFLNWFDDRTWYPLGRVTGGTLYPGLMTTSAFIWHALRNWLGLPIDIRNVCVLFAPLFSGVTAWATYEFTKEIKDASAGLLAAGFIAIVPGYISRSVAGSYDNEAIAITLLMVTFMFWIKAQKTGSIMHATCAALFYFYMVSAWGGYVFITNLIPLHVFLLILMGRYSSKLYSAYTTWYAIGTVASMQIPFVGFLPIRSNDHMAALGVFGLIQIVAFGDFVKGQISTAKFKVIMMVSLFLILVLGVVGLSALTYMGLIAPWTGRFYSLWDTNYAKIHIPIIASVSEHQPVSWPAFFFDTHFLIWLFPAGVFLLFLDLKDEHVFVIAYSVLCSYFAGVMVRLMLTLTPVICVSAAVALSKIFDIYLDFKTSDRKYAIKPAALLAKLIVSGSFIFYLYLFVFHSTWVTRTAYSSPSVVLPSQTPDGKLALIDDFREAYYWLRMNSDEDSKVAAWWDYGYQIGGMADRTTLVDNNTWNNTHIAIVGKAMASPEEKSYEILKEHDVDYVLVIFGGLIGFGGDDINKFLWMIRISEGIWPEEIKERDFYTAEGEYRVDARASETMRNSLLYKMSYKDFPQLFNGGQATDRVRQQMITPLDVPPLDYFDEVFTSENWMVRIYQLKKDDAQGRTLRDVGELTRSSTKTRRSIKRPELGLRV
notes: a solubilized preparation of the yeast enzyme oligosaccharyl transferase; endogenous in cells; host or cells: Saccharomyces cerevisiae (crude, Triton-solubilized enzyme preparation)
Regarding B1, the Km in data set [2] stood at 25 µM.
